This assay concerns HCT116. Particulars: 72 h. The gist of the method: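 After seeding at 250 cells per well in 1536-well plates, HCT116 cells were given 5 h to attach. CellTiter-Glo luminescence, scaled to 0% for vehicle and -100% for positive control, was pattern-corrected. Fitting with a four-parameter Hill model produced IC50 and maximal efficacy.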

Where a name gives a salt, the structure may show the parent alone.

In the case of `Cc1ccc(C(=O)C(=O)O)cc1C` [Sodium 3, 4-dimethylphenyl-glyoxylate], the IC50 cell viability is, setting by setting: (ICRF193 0 nM) greater than 45.8 µM; (ICRF193 200 nM) greater than 45.8 µM.

`Cc1[nH]c(=O)c(C#N)cc1-c1ccc2nccn2c1` [Olprinone] registered an IC50 cell viability (ICRF193 0 nM) greater than 45.8 µM and an IC50 cell viability (ICRF193 200 nM) greater than 45.8 µM.

Compound `N[C@H](CCC(=O)O)C(=O)O` [D-Glutamic acid] returned an IC50 cell viability (ICRF193 0 nM) greater than 45.8 µM and an IC50 cell viability (ICRF193 200 nM) greater than 45.8 µM.

For the compound `CCCCCCCCCCCCCCCC(=O)OC/C=C(C)/C=C/C=C(C)/C=C/C1=C(C)CCCC1(C)C` [Retinyl palmitate], the IC50 cell viability is greater than 45.8 µM (ICRF193 0 nM) and greater than 45.8 µM (ICRF193 200 nM).

`CO/N=C1\CN(c2nc3c(cc2F)c(=O)c(C(=O)O)cn3C2CC2)CC1CN` (configuration not stated) [Gemifloxacin mesylate]: the IC50 cell viability is, setting by setting: (ICRF193 0 nM) greater than 45.8 µM; (ICRF193 200 nM) greater than 45.8 µM.

With `CC(CC=O)CCCC(C)(C)O` (configuration not stated) [Hydroxycitronellal], the IC50 cell viability is greater than 45.8 µM (ICRF193 0 nM) and greater than 45.8 µM (ICRF193 200 nM).

Take `Cc1cccc(C)c1NC(=O)C1CCCCN1C` (configuration not stated) [MEPIVACAINE HYDROCHLORIDE]: the IC50 cell viability is, setting by setting: (ICRF193 0 nM) greater than 45.8 µM; (ICRF193 200 nM) greater than 45.8 µM.

Take `O=C(O)CCNC(=O)c1ccccc1` [Betamipron]: the IC50 cell viability was greater than 45.8 µM (ICRF193 0 nM) and greater than 45.8 µM (ICRF193 200 nM).

With `CN/C(=N\CCSCc1nc[nH]c1C)NC#N` [Cimetidine], the IC50 cell viability is, setting by setting: (ICRF193 0 nM) greater than 45.8 µM; (ICRF193 200 nM) greater than 45.8 µM.

In the case of `O=C(O)CCCc1ccccc1` [Sodium 4-phenylbutyrate], the IC50 cell viability is greater than 45.8 µM (ICRF193 0 nM) and greater than 45.8 µM (ICRF193 200 nM).

`Clc1ccc(C(c2ccc(Cl)cc2)C(Cl)(Cl)Cl)cc1` [p,p'-DDT] yielded an IC50 cell viability (ICRF193 0 nM) greater than 45.8 µM and an IC50 cell viability (ICRF193 200 nM) greater than 45.8 µM.

Regarding `C[C@]12CCC(=O)C=C1CC[C@@H]1[C@@H]2[C@@H](O)C[C@@]2(C)[C@H]1CC[C@]2(O)C(=O)COC(=O)CCC(=O)O` [Hydrocortisone 21-hemisuccinate sodium salt], the IC50 cell viability runs as follows: (ICRF193 0 nM) greater than 45.8 µM; (ICRF193 200 nM) greater than 45.8 µM.

`CC[C@H]1OC(=O)C[C@@H](O)[C@H](C)[C@@H](O[C@@H]2O[C@H](C)[C@@H](O)[C@H](N(C)C)[C@H]2O)[C@@H](CCN2C[C@H](C)C[C@H](C)C2)C[C@@H](C)C(=O)/C=C/C(C)=C/[C@@H]1CO[C@@H]1O[C@H](C)[C@@H](O)[C@@H](OC)[C@H]1OC` [TILMICOSIN]: the IC50 cell viability by setting is: (ICRF193 0 nM) greater than 45.8 µM; (ICRF193 200 nM) greater than 45.8 µM.

In turn, `Nc1c(CC(=O)O)cccc1C(=O)c1ccc(Br)cc1` [Bromfenac sodium sesquihydrate] had an IC50 cell viability (ICRF193 0 nM) greater than 45.8 µM and an IC50 cell viability (ICRF193 200 nM) greater than 45.8 µM.

Consider `C[C@H]1C[C@@H]2[C@H]([C@@H](O)C[C@@]3(C)[C@H]2CC[C@]3(O)C(=O)COC(=O)CCC(=O)O)[C@@]2(C)C=CC(=O)C=C12`, for which the IC50 cell viability reads like this: (ICRF193 0 nM) greater than 45.8 µM; (ICRF193 200 nM) greater than 45.8 µM.

Consider `COc1ccc2c(c1OC)C(=O)O[C@@H]2[C@H]1c2c(cc3c(c2OC)OCO3)CCN1C` [Noscapine], for which the IC50 cell viability is greater than 45.8 µM (ICRF193 0 nM) and greater than 45.8 µM (ICRF193 200 nM).

With `C#C[C@]1(O)CC[C@H]2[C@@H]3CCC4=CCCC[C@@H]4[C@H]3C(=C)C[C@@]21CC` [Desogestrel], the IC50 cell viability is, setting by setting: (ICRF193 0 nM) greater than 45.8 µM; (ICRF193 200 nM) greater than 45.8 µM.

Take `OCCOc1ccccc1` [2-Phenoxyethanol]: the IC50 cell viability runs as follows: (ICRF193 0 nM) greater than 45.8 µM; (ICRF193 200 nM) greater than 45.8 µM.

With `COc1ccc(C(=O)CC(=O)c2ccc(C(C)(C)C)cc2)cc1` [Avobenzone], the IC50 cell viability is, setting by setting: (ICRF193 0 nM) greater than 45.8 µM; (ICRF193 200 nM) greater than 45.8 µM.

As to `Cc1c(C)c2c(c(C)c1OC(=O)c1cccnc1)CC[C@@](C)(CCC[C@H](C)CCC[C@H](C)CCCC(C)C)O2` (racemic) [DL-alpha Tocopheryl nicotinate], the IC50 cell viability by setting is: (ICRF193 0 nM) greater than 45.8 µM; (ICRF193 200 nM) greater than 45.8 µM.

For `CN(C(=O)/C=C/c1ccoc1)[C@@H]1CC[C@@]2(O)[C@H]3Cc4ccc(O)c5c4[C@@]2(CCN3CC2CC2)[C@H]1O5` [Nalfurafine hydrochloride], the IC50 cell viability runs as follows: (ICRF193 0 nM) greater than 45.8 µM; (ICRF193 200 nM) greater than 45.8 µM.

Take `NCC1(CC(=O)O)CCCCC1` [Gabapentin]: the IC50 cell viability runs as follows: (ICRF193 0 nM) greater than 45.8 µM; (ICRF193 200 nM) greater than 45.8 µM.

As for `Cc1oc(=O)oc1CN1CCN(c2cc3c(cc2F)c(=O)c(C(=O)O)c2n3C(C)S2)CC1` (configuration not stated) [Prulifloxacin], the IC50 cell viability (ICRF193 0 nM) was greater than 45.8 µM and the IC50 cell viability (ICRF193 200 nM) is greater than 45.8 µM.

With `CC1CC(=O)NN=C1c1ccc(NCC(C)(C)NCC(O)COc2cc(Cl)ccc2C#N)cc1` (configuration not stated) [Oberadilol], the IC50 cell viability is greater than 45.8 µM (ICRF193 0 nM) and greater than 45.8 µM (ICRF193 200 nM).

On to `CCCc1ccc(OCC(=O)N2CCN(C(=O)COc3ccc(CCC)cc3OC)CC2)c(OC)c1` [Simetride], for which the IC50 cell viability is greater than 45.8 µM (ICRF193 0 nM) and greater than 45.8 µM (ICRF193 200 nM).

`O=P(O)(O)C(Sc1ccc(Cl)cc1)P(=O)(O)O` [Tiludronate disodium salt hydrate]: the IC50 cell viability is greater than 45.8 µM (ICRF193 0 nM) and greater than 45.8 µM (ICRF193 200 nM).
